This test has as its target T1, mushroom tyrosinase (Agaricus bisporus, UniProt C7FF04).
T1 construct: gene PPO3
Kind of test: cell-free mushroom tyrosinase assay with L-tyrosine, absorbance at […] nm, single concentration […]. The test is classed as biochemical. The note with it: read-out: % inhibition at 250 nM.

T1 sequence (C7FF04 2-392): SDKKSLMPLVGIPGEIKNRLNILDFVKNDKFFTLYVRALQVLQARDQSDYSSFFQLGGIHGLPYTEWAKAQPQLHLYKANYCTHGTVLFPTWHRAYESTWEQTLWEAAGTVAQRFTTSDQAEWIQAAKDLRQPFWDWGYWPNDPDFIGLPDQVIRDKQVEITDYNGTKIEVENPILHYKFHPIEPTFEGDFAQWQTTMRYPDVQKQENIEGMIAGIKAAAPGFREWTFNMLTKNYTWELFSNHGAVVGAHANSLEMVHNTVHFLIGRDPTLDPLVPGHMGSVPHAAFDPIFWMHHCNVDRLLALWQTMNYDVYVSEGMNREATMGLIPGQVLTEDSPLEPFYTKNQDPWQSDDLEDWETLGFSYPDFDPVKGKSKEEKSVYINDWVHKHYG

As for `NC(=S)Nc1ccccc1` [PTU, phenylthiourea], the inhibition (usually the relative decrease from the control value, in per cent) at 0.25 µM turned out to be 74.7%.
